Assay results taken from PubChem BioAssay (NCI).
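These data come from cells grown in 96-well plates and exposed to compound for 48 hours at five concentrations. GI50 = concentration required for 50% inhibition of growth. TGI: concentration producing complete growth inhibition.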

Columns and labels:
Assay in all cases: growth of human tumour cells (NCI), 48 h; in the data active = GI50 below about 0.43 µM; inactive = the rest
[1] = system: 786-0 renal
[2] = system: A498 renal
[3] = system: A549 NSCLC
[4] = system: ACHN renal
[5] = system: BT-549 breast
[6] = system: CAKI-1 renal
[7] = system: CCRF-CEM leukemia
[8] = system: COLO 205 colon
[9] = system: DU-145 prostate
[10] = system: EKVX NSCLC
[11] = system: HCC-2998 colon
[12] = system: HCT-116 colon
[13] = system: HCT-15 colon
[14] = system: HL-60(TB) leukemia
[15] = system: HOP-62 NSCLC
[16] = system: HOP-92 NSCLC
[17] = system: HS 578T breast
[18] = system: HT29 colon
[19] = system: IGROV1 ovarian
[20] = system: K-562 leukemia
[21] = system: KM12 colon
[22] = system: LOX IMVI melanoma
[23] = system: M14 melanoma
[24] = system: MALME-3M melanoma
[25] = system: MCF7 breast
[26] = system: MDA-MB-231 breast
[27] = system: MDA-MB-435
[28] = system: MOLT-4 leukemia
[29] = system: NCI-H226 lung
[30] = system: NCI-H23 lung
[31] = system: NCI-H460 lung
[32] = system: NCI-H522 lung
[33] = system: NCI/ADR-RES ovarian
[34] = system: OVCAR-3 ovarian
[35] = system: OVCAR-4 ovarian
[36] = system: OVCAR-5 ovarian
[37] = system: OVCAR-8 ovarian
[38] = system: PC-3 prostate
[39] = system: RPMI-8226 leukemia
[40] = system: RXF 393 renal
[41] = system: SF-268 CNS
[42] = system: SF-295 CNS
[43] = system: SF-539 CNS
[44] = system: SK-MEL-2 melanoma
[45] = system: SK-MEL-28 melanoma
[46] = system: SK-MEL-5 melanoma
[47] = system: SK-OV-3 ovarian
[48] = system: SN12C renal
[49] = system: SNB-19 CNS
[50] = system: SR leukemia
[51] = system: SW-620 colon
[52] = system: T-47D breast
[53] = system: TK-10 renal
[54] = system: U251 CNS
[55] = system: UACC-257 melanoma
[56] = system: UACC-62 melanoma
[57] = system: UO-31 renal

COc1ccc2c(c1)C(=Nc1ccc(F)c(F)c1F)c1c-2c(Nc2ccc(F)c(F)c2F)nc2ccccc12
> 83.6 µM: TGI [43]
61.7 µM: TGI [47]
> 72.9 µM: TGI [19]
> 90.9 µM: TGI [53]
> 82.8 µM: TGI [33]
> 64.3 µM: TGI [54]
53.7 µM: TGI [2]
> 62.2 µM: TGI [30]
> 68.7 µM: TGI [1]
> 78.6 µM: TGI [37]
1.41 µM: TGI [50]
> 65.4 µM: TGI [5]
> 100 µM: TGI [3] | TGI [4] | TGI [6] | TGI [7] | TGI [8] | TGI [9] | TGI [10] | TGI [11] | TGI [12] | TGI [13] | TGI [16] | TGI [17] | TGI [18] | TGI [20] | TGI [21] | TGI [22] | TGI [23] | TGI [24] | TGI [25] | TGI [27] | TGI [28] | TGI [31] | TGI [32] | TGI [36] | TGI [38] | TGI [39] | TGI [41] | TGI [42] | TGI [44] | TGI [45] | TGI [46] | TGI [48] | TGI [49] | TGI [51] | TGI [52] | TGI [55] | TGI [57]
inactive: GI50 [1] 27.3 µM | GI50 [2] 17.2 µM | GI50 [3] > 59.3 µM | GI50 [4] 41.2 µM | GI50 [5] 36 µM | GI50 [6] > 57.2 µM | GI50 [7] 46.3 µM | GI50 [8] 38.8 µM | GI50 [9] 49.8 µM | GI50 [10] > 79.5 µM | GI50 [11] > 100 µM | GI50 [12] 31.8 µM | GI50 [13] 49 µM | GI50 [15] 14.6 µM | GI50 [16] 48 µM | GI50 [17] 22 µM | GI50 [18] 36.6 µM | GI50 [19] 15.9 µM | GI50 [20] 29.5 µM | GI50 [21] > 71.1 µM | GI50 [22] > 60.5 µM | GI50 [23] 27.7 µM | GI50 [24] 50.6 µM | GI50 [25] 44 µM | GI50 [26] 26.6 µM | GI50 [27] > 70.7 µM | GI50 [28] 24.2 µM | GI50 [29] > 44.4 µM | GI50 [30] > 36.1 µM | GI50 [31] > 75.5 µM | GI50 [32] 59.8 µM | GI50 [33] 37.4 µM | GI50 [34] 46.6 µM | GI50 [35] 27.8 µM | GI50 [36] > 46.6 µM | GI50 [37] 35.9 µM | GI50 [38] > 56.7 µM | GI50 [39] 42.7 µM | GI50 [40] 17.2 µM | GI50 [41] 36.8 µM | GI50 [42] 41.3 µM | GI50 [43] 37.7 µM | GI50 [44] 23.8 µM | GI50 [45] 28 µM | GI50 [46] > 74.4 µM | GI50 [47] 16.3 µM | GI50 [48] > 58.6 µM | GI50 [49] 33.1 µM | GI50 [51] > 59.3 µM | GI50 [52] > 100 µM | GI50 [53] 25.4 µM | GI50 [54] 28.2 µM | GI50 [55] > 100 µM | GI50 [56] 23.8 µM | GI50 [57] > 89.3 µM
56.5 µM: TGI [40]
> 55.1 µM: TGI [56]
> 55.6 µM: TGI [35]
43.7 µM: TGI [15]
> 60.1 µM: TGI [26]
> 84.1 µM: TGI [29]
> 89.1 µM: TGI [34]
0.0392 µM: TGI [14]

C=C1C(=O)O[C@H]2[C@H]1CC/C(COC(=O)NCc1ccc(Cn3c(=O)sn(CCCC)c3=O)cc1)=C\CC[C@@]1(C)O[C@@H]21
3.09 µM: TGI [51]
> 100 µM: TGI [20]
5.73 µM: TGI [28]
9.83 µM: TGI [10]
4.07 µM: TGI [39]
3.76 µM: TGI [13]
3.59 µM: TGI [53]
3.36 µM: TGI [9] | TGI [45]
15.2 µM: TGI [37]
17 µM: TGI [44]
active: GI50 [50] 0.407 µM
28.7 µM: TGI [3] | TGI [47]
15.3 µM: TGI [30]
3.57 µM: TGI [26]
3.22 µM: TGI [27] | TGI [56]
4.02 µM: TGI [1]
29 µM: TGI [42]
5.39 µM: TGI [50]
4.18 µM: TGI [18]
3.93 µM: TGI [19] | TGI [48]
2.78 µM: TGI [12] | TGI [57]
3.32 µM: TGI [24]
3.03 µM: TGI [5]
5.42 µM: TGI [14]
3.24 µM: TGI [6] | TGI [43]
3.04 µM: TGI [40]
3.08 µM: TGI [4] | TGI [22]
29.4 µM: TGI [21]
3.91 µM: TGI [25]
4.83 µM: TGI [52]
4.93 µM: TGI [55]
17.2 µM: TGI [41]
19.6 µM: TGI [31] | TGI [49]
14.1 µM: TGI [2]
3.88 µM: TGI [8]
13.4 µM: TGI [11]
97.9 µM: TGI [33]
4.56 µM: TGI [7]
9.48 µM: TGI [46]
2.88 µM: TGI [32]
3.05 µM: TGI [35]
26.6 µM: TGI [15]
2.72 µM: TGI [16]
15.5 µM: TGI [54]
29.8 µM: TGI [29]
12.7 µM: TGI [17]
3.56 µM: TGI [38]
inactive: GI50 [1] 2 µM | GI50 [2] 3.28 µM | GI50 [3] 13.4 µM | GI50 [4] 1.67 µM | GI50 [5] 1.56 µM | GI50 [6] 1.64 µM | GI50 [7] 0.657 µM | GI50 [8] 2 µM | GI50 [9] 1.81 µM | GI50 [10] 3.32 µM | GI50 [11] 4.1 µM | GI50 [12] 1.36 µM | GI50 [13] 2.02 µM | GI50 [14] 1.81 µM | GI50 [15] 12.7 µM | GI50 [16] 1.29 µM | GI50 [17] 3.24 µM | GI50 [18] 2.08 µM | GI50 [19] 1.83 µM | GI50 [20] 0.891 µM | GI50 [21] 14.8 µM | GI50 [22] 1.65 µM | GI50 [23] 1.45 µM | GI50 [24] 1.6 µM | GI50 [25] 1.87 µM | GI50 [26] 1.8 µM | GI50 [27] 1.65 µM | GI50 [28] 1.55 µM | GI50 [29] 11.9 µM | GI50 [30] 4.19 µM | GI50 [31] 5.92 µM | GI50 [32] 1.19 µM | GI50 [33] 27.8 µM | GI50 [34] 1.59 µM | GI50 [35] 1.52 µM | GI50 [36] 1.93 µM | GI50 [37] 3.64 µM | GI50 [38] 1.75 µM | GI50 [39] 1.48 µM | GI50 [40] 1.57 µM | GI50 [41] 4.28 µM | GI50 [42] 15.3 µM | GI50 [43] 1.68 µM | GI50 [44] 4.52 µM | GI50 [45] 1.8 µM | GI50 [46] 3.18 µM | GI50 [47] 15.2 µM | GI50 [48] 1.73 µM | GI50 [49] 6.63 µM | GI50 [51] 1.51 µM | GI50 [52] 2.04 µM | GI50 [53] 1.81 µM | GI50 [54] 4.15 µM | GI50 [55] 2.03 µM | GI50 [56] 1.62 µM | GI50 [57] 1.45 µM
4.06 µM: TGI [36]
2.97 µM: TGI [23] | TGI [34]
